Reference: patent publication US9321718B2 (CHROMA THERAPEUTICS LTD., priority 2010, dated 2016)
Where two headings read alike, the source gives them in different places.

How the values were obtained:
Hut78 (hCE-1 -ve) cells = test: Proliferation assay, Hut78 cells; type: cell-based, human; conditions: for IC50: Homo sapiens, Hut78, 72 hours, WST-1, read-out: Proliferation assay: Inhibition of Hut78 (hCE-1 -ve) cell proliferation IC50
Procedure: (§1) Cells are seeded in 96 well tissue culture plates (1 well=30 mm^2) at an appropriate density (2000 cells per well for U937 cells, 2250 cells per well for HUT-78 and MINO cells) in 50 μl of culture medium (see below for details). 24 Hours later 50 μl of the compound prepared in the same medium is added as 3 fold dilutions to give final concentrations in the range 5-10,000 nM (n=6 for each concentration). The plates are then incubated at 37° C., 5% CO2 for 72 hours. Cell proliferation is assessed using WST-1 (a metabolic indicator dye, Roche Cat no. 11644807001) according to the manufacturer's instructions. The results are calculated as a percentage of vehicle response and plotted as a dose-response curve. IC50 values represent the concentration of compound that inhibits the vehicle response by 50%.
(§2) Culture medium for U937 and RUT-78 cells is RPMI1640 (Sigma R0883) with 10% heat inactivated fetal calf serum (Hyclone SH30071, Perbio), plus 2 mM glutamine (Sigma G7513) and 50 U/ml penicillin and streptomycin sulphate (Sigma P0781). MINO cell culture medium is as for U937 and HUT-78 but supplemented with sodium pyruvate (Sigma S8636) to a final concentration of 1 mM.

[1] = system: TNFα release from LPS stimulated THP-1 (hCE-1 +ve) cells; test: LPS-stimulation of THP-1 cells (TNF-α release); type: cell-based, human; conditions: for IC50: Homo sapiens, THP-1
Procedure, shortened: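 THP-1 cells at 4×10^4 per well were pre-incubated for 16 h, then exposed to inhibitor for 2 h before stimulation with 1 μg/ml LPS for 6 h at 37 °C. TNF-α in cell-free supernatants was measured by sandwich ELISA.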

[2] = molecular target: T1, human recombinant his-tagged HSP90α (Homo sapiens, UniProt P07900); test: HSP90 enzyme assay (HTRF, competition with biotinylated Geldanamycin); type: binding
T1 construct: purchased Prospec Technogene #HSP90
Procedure, shortened: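 HTRF competition: compounds (5000 to 0.3 nM, 0.5% DMSO) displace 40 nM biotinylated geldanamycin from 40 nM his-tagged HSP90α. Binding was read via Eu-cryptate anti-his/streptavidin-XL FRET after 20 h at room temperature in Hepes pH 7.3 buffer. IC50 was fitted against controls.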

U937 (hCE-1 +ve) cells = test: Proliferation assay, U937 cells; type: cell-based, human; conditions: for IC50: Homo sapiens, U-937, U937, 72 hours, WST-1, read-out: Proliferation assay: Inhibition of U937 (hCE-1 +ve) cell proliferation IC50
Procedure: as §1, §2

[3] = system: TNF-α levels in LPS-stimulated human whole blood; test: LPS-stimulation of human whole blood (TNF-α levels); type: cell-based; conditions: Homo sapiens; IC50 range; TNF-α after LPS 100 ng/ml, 6 hours
Procedure: Whole blood is taken by venous puncture using heparinised vacutainers (Becton Dickinson) and diluted in an equal volume of RPMI1640 tissue culture media (Sigma). 100 μl is then plated in V-bottomed 96 well tissue culture treated plates. 2 Hours after the addition of the inhibitor in 100 μl of RPMI1640 media, the blood is stimulated with LPS (E. Coli strain 005:B5, Sigma) at a final concentration of 100 ng/ml and incubated at 37° C. in 5% CO2 for 6 hours. TNF-α levels are measured from cell-free supernatants by sandwich ELISA (R&D Systems #QTA00B).

intact Hut78 cells = test: Carboxylic acid accumulation in intact Hut78 cells; type: in vitro ADME, human; conditions: in words
Procedure: (§3) The assessment of the accumulation of ester-derived acid in intact human tumour cells can be measured using the following method:
(§4) U937, THP-1 or Hut 78 cells (4×10^4/ml) were incubated at 37° C. in culture medium containing 6 μM compound. Incubations were terminated by centrifugation (300 g; 5 min; 4° C.). Supernatants were added to 4 volumes of HPLC-grade acetonitrile. After decanting the supernatant, the residual cell pellet (1×10^6 cells) was extracted into 1 ml of acetonitrile. Samples were analyzed for the ester and acid metabolite at room temperature by LC/MS/MS (Sciex API3000). Chromatography was based on an AceCN (75*21 mm) column with a 5-95% (v/v) acetonitrile, 0.1% (v/v) formic acid mobile phase.

intact U937 cells = test: Carboxylic acid accumulation in intact U937 cells; type: in vitro ADME, human; conditions: in words
Procedure: as §3, §4

intact THP-1 cells = test: Carboxylic acid accumulation in intact THP-1 cells; type: in vitro ADME, human; conditions: in words
Procedure: as §3, §4

[4] = read-out: THP-1 assay: Inhibition of TNFα release from LPS stimulated THP-1 (hCE-1 +ve) cells (IC50 nM)
[5] = compound as drawn (ester for the ester compound), read-out: Enzyme assay: Inhibition of Hsp90 (IC50 nM)
[6] = IC50 range, TNF-α after LPS 1 μg/ml, 6 hours, read-out: THP-1 Assay
[7] = IC50 range, read-out: Enzyme Assay

| Ratio of IC50's of Hut78 to U937 cells (Hut78 (hCE-1 -ve) cells) | IC50 [1, 4] [nM] | IC50 [2, 5] [nM] | IC50 (U937 (hCE-1 +ve) cells) [nM] | IC50 [1, 6] [nM] | IC50 [2, 7] [nM] | IC50 ([2]; acid (carboxylic acid of the ester drawn), read-out: Enzyme assay: Inhibition of Hsp90 (IC50 nM)) [nM] | IC50 in the Hsp90 binding assay compared with CHR-7310 ([2]; in words, relative to non-ester parent CHR-7310) | IC50 [3] [nM] | Acid detected in Hut78 cells (intact Hut78 cells) | Carboxylic acid accumulated by U937 cells (intact U937 cells) | Carboxylic acid accumulated by THP-1 cells (intact THP-1 cells) | SMILES | IC50 (Hut78 (hCE-1 -ve) cells) [nM] | Potency in Hut78 cells (Hut78 (hCE-1 -ve) cells; in words, Hut78 cells do not contain hCE-1) | Potency in THP-1 cells compared with CHR-7310 ([1]; in words, relative to CHR-7310) | Potency in U937 cells compared with CHR-7310 (U937 (hCE-1 +ve) cells; in words, relative to CHR-7310) |
| --- | --- | --- | --- | --- | --- | --- | --- | --- | --- | --- | --- | --- | --- | --- | --- | --- |
| ~1 | 476 | 8 | 200 |  |  |  |  |  |  |  |  | CC1CCN(C(=O)c2cc(C(C)C)c(O)cc2O)CC1 [CHR-7310, reference compound] | 145 |  |  |  |
| 28 | 45 | 42 | 27 | < 100 | < 100 | 7 | weaker | 100 to 1000 |  |  |  | CC(C)c1cc(C(=O)N2CCC(N[C@@H](COC(C)(C)C)C(=O)OC3CCCC3)CC2)c(O)cc1O [Example 17, cyclopentyl O-tert-butyl-N-(1-{[2,4-dihydroxy-5-(propan-2-yl)phenyl]carbonyl}piperidin-4-yl)-L-serinate] | 760 | significantly weaker | significantly more potent | significantly more potent |
|  |  |  |  | < 100 | < 100 |  |  | 100 to 1000 | negligible | significant amounts | significant amounts | CC(C)C[C@H](NC1CCN(C(=O)c2cc(C(C)C)c(O)cc2O)CC1)C(=O)OC1CCCC1 [Example 1, cyclopentyl N-(1-{[2,4-dihydroxy-5-(propan-2-yl)phenyl]carbonyl}piperidin-4-yl)-L-leucinate] |  |  |  |  |
